In patent publication US20030119800A1, “Bone anabolic compounds and methods of use” (priority 2001, published 2003):

Key:
[1] = test system: OVX or ORX Swiss Webster mice; experiment: Gonadectomized (OVX or ORX) Swiss Webster mice with 60-day slow release pellets: bone and reproductive tissues; assay type: in vivo, mouse
Procedure: Osteoblastic cells (A) were isolated from calvaria of neonatal female or male mice, the sex of which was determined by Southern blot analysis of liver DNA with a Y chromosome specific cDNA probe; and cultured as previously described. The ability of the indicated steroids to protect against etoposide induced apoptosis was determined as in FIG. 1D, lower panel. (B) Osteoclasts were generated in bone marrow cultures from adult female or male mice, and then treated with vehicle or the indicated concentrations of steroids for 24 hours at which point the number of cells undergoing apoptosis was determined. Representative results from 1 of 4 females and 1 of 4 males examined are shown. Each point represents the mean of triplicate determinations±SD. *p<0.05 vs. vehicle, by ANOVA. (C & D) Eight-month old Swiss Webster mice (n=8-10 per group) were sham-operated, ovariectomized (OVX) or orchidectomized (ORX). […] BMD and wet uterine or seminal vesicle weight was determined six weeks later. Bars indicate means±SD. *p<0.05 vs OVX or ORX.
FIG. 9 illustrates the equivalence of the skeletal actions of estrogens and androgens in female and male mice. […] Six weeks later, osteoblast apoptosis in histologic sections of the vertebrae (A), osteoblastogenesis and osteoclastogenesis in ex vivo bone marrow cultures (B and C), and serum osteocalcin concentration (D) were determined. Bars indicate means±SD, *p<0.05 vs OVX or ORX.
Global, spine and hindlimb BMD was determined at both 4 and 6 weeks later in the experiment with the 8 month old females, and at 6 weeks only in the experiments with the 6 month old females and males (A, B and C). The 6 week BMD data in females (B) represent pooled values from the two experiments with the 6- and the 8-month old mice.
Longitudinal undecalcified sections of the distal femur are shown in (B). […] Osteoblast apoptosis in sections of L1-L4 vertebrae from females (8 month old) and males (C).
Histomorphometric analysis of L1-L4 vertebrae from 6 month old females (A-F) and pooled serum osteocalcin levels from the 6 and 8 month old females (G). […] The ANGELS compounds described herein are useful for maintaining and/or increasing bone mass and/or strength and/or density in mammals. Mammals, preferably humans, in need of such compounds can include those suffering from such conditions as female osteoporosis (post menopausal), male osteoporosis, glucocorticoid-induced osteoporosis, immobilization and aging-related osteoporosis, idiopathic or juvenile osteoporosis, transplantation-related osteoporosis, and alveolar ridge bone loss. In addition, the compounds described herein are particularly useful for administration to subjects that are unable or unwilling to tolerate therapies that have a masculinizing or feminizing effect. For example, subjects such as breast cancer patients (especially those with bone metastasis on gonadotropin […] hormone (GnRH) or ovariectomized), prostrate cancer patients (especially those on GnRH/castration therapy), and myeloma/lymphoma patients are frequently poor candidates for treatment with estrogen or androgens because of the risk of a recurrence of the underlying condition, e.g., cancer.
Wet uterine (A) or seminal vesicle weight (B) of female and male mice described in FIG. 11. […] Note the following morphologic differences in the uteri of OVX- and OVX+4-estren-3α,17β-diol-treated mice as compared to uteri from sham-operated and OVX+E2-treated mice: thin and atrophic columnar epithelium; compact stroma; decreased number of glands; decreased nucleus to cytoplasmic ratio in the columnar epithelial, endometrial stroma, and myometrial cells; and absence of mitotic activity. (D) Proliferation of MCF-7 cells was determined by ^3H-thymidine uptake.
For these studies, mature Swiss Webster mice (8 month old), n=8-10 per group, were sham-operated or gonadectomized (GNDX). […]

ERα = target: T1, ERα (Homo sapiens, UniProt P03372); experiment: SRE-SEAP and AP-1-SEAP reporter assays in HeLa cells transfected with ERα; assay type: cell-based; conditions: steroids 10^−8 M for 15 minutes (E2 as little as five minutes), SEAP six hours later
T1 construct: HeLa cells transfected with the full length ERα; expressed in transfected cells; host or cells: HeLa
Procedure: HeLa cells were co-transfected with reporter constructs in which SRE or AP-1 drive the expression of secreted alkaline phosphatase (SEAP), along with the wild type ERα (A and B); or its ligand binding domain (E), or E fused to a membrane (E-Mem) or nuclear (E-Nuc) localization sequence (A). A dominant negaitve (dn) MEK or dn Jnk were also introduced into a subset of the ERα transfected cells. Cells were exposed to vehicle or the indicated steroids (10^−8M) for 15 minutes. The steroid containing media were then removed, the cells were washed twice, and the cultures were continued in fresh medium without steroids. Supernatants were collected six hours later and SEAP activity was assayed. In FIGS. 1A and 1B, 100% indicates activity in vehicle treated cells. (C) HeLa cells were co-transfected with the ERα and nEGFP and wild type or dn mutants of the indicated transcription factors. […] (D) HeLa cells (upper panel) were transiently co-transfected with the ERα, a nonphosphorylatable dn mutant of Bad. […] Cells were then treated as in (C).
Transient transfections and reporter assays: HeLa cells were transfected using Lipofectamine Plus (Life Technologies Inc.). For reporter assays (luciferase or secreated alkaline phosphatase SEAP), serum-starved cells were treated with the indicated steroids for 15 min after which the steroid-containing media were removed, cells washed twice with 1% BSA in PBS, and fresh media without steroid were added. SEAP or luciferase assays were performed 6 h later using the Great EscAPe SEAP Chemiluminescence Kit (Clontech, Palo Alto, Calif.) or the dual luciferase Kit (Promega, Madison, Wis.), respectively, according to the manufacturer's instructions. Both reporter activities were normalized to renilla luciferase activity.

[2] = histomorphometry of lumbar vertebrae L1-L4, OVX females

T1 sequence (P03372 whole entry): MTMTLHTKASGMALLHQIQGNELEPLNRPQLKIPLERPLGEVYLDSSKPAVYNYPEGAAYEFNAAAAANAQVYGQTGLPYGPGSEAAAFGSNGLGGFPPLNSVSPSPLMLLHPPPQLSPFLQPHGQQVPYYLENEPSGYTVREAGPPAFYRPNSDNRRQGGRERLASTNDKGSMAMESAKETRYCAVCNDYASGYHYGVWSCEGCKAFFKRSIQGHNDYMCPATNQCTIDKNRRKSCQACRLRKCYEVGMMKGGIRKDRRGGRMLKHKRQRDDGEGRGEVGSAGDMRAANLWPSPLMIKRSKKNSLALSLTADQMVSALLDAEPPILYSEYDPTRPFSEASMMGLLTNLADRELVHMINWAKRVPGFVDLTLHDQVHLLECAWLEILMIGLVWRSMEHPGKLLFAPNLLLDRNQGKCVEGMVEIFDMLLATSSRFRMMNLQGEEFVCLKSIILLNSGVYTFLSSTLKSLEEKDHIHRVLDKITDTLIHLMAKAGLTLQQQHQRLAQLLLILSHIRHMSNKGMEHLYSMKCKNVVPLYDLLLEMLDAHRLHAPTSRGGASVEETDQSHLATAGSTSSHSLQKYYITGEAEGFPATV

In the case of `C[C@]12CC[C@H]3[C@@H](CCC4=C[C@H](O)CC[C@@H]43)[C@@H]1CC[C@@H]2O` [4-estren-3α,17β-diol], the body weight ([1]; 7.6 mg per 60 day slow release pellet) is reported as “no effect”, the “effect on the bone marrow cavity” value ([1]; 4-estren-3α,17β-diol 7.6 mg pellet, E2 pharmacologic dose 100× the replacement dose) is reported as “no adverse effects” and the “longitudinal undecalcified sections of the distal femur” value ([1]; 4-estren-3α,17β-diol at 300× ERT versus vehicle or E2 1× ERT, E2 at 100× ERT) is reported as “increased cortical and trabecular width”. For the same compound, the “bone compression strength in the vertebrae, male mice” value ([1]; L5, ORX) was “equally effective”, the “bone compression strength in the vertebrae, female mice” value ([1]; L5, compared to mice receiving E2) was “greater than in mice receiving E2” and the “BMD in ORX mice compared to DHT replacement” value ([1]; ORX males, 7.6 mg pellet) was “at least as effective if not superior”. The “BMD values in the spine versus the untreated ORX group” value ([1]; ORX males, 6 weeks) was “significantly higher”, the seminal vesicle weight ([1]; ORX males, pellets E2 0.025 mg or 4-estren-3α,17β-diol 7.6 mg) was “no effect” and the “histologic analysis of the uterus” value ([1]; OVX females) was “lack of an effect”. For the same compound, the wet uterine weight ([1]; OVX females, pellets DHT 10 mg or 4-estren-3α,17β-diol 7.6 mg) was “no effect”, the “BMD change in the hindlimb” value ([1]; OVX mice, compared to OVX+E2 replacement and to estrogen replete sham controls) was “greater BMD change” and the “global and spinal BMD in females” value ([1]; OVX, 7.6 mg pellet versus E2 replacement) was “as effective, if not superior to estradiol”. For the same compound, the osteoclast number ([1]; as compared to the OVX group) was “suppressed”, the “rate of bone formation” value ([1]; as compared to the OVX group) was “suppressed” and the “prevalence of osteoblast and osteocyte apoptosis in the lumbar vertebrae” value ([1]; gonadectomized females or males) was “prevented the increased prevalence”. The “cortical width, greater compared to OVX mice treated with E2” value [1, 2] was 27.8%, the “number of osteoblasts on the trabeculae, greater than in the E2-treated group” value [1, 2] was 319% and the “osteoid perimeter, increase versus E2-treated group” value [1, 2] was 270%. The “trabecular width, greater compared to OVX mice treated with E2” value [1, 2] was 33.9%, the serum osteocalcin ([1]; two separate experiments, compared to OVX+E2 and to estrogen replete sham controls) was “significantly higher” and the “AP-1-dependent transcriptional activity (AP-1-SEAP)” value (ERα) was “downregulation of AP-1”. The “SRE-dependent transcriptional activity (SRE-SEAP)” value (ERα) was “Stimulation of SRE”.
